# Data reported in US20250302817A1, “METHODS FOR TREATING PTEN-MUTANT TUMORS” (Icahn School of Medicine at Mount Sinai, priority 2016, published 2025).
# Experiments:
# [1] = molecular target: T1, CYP2D6 (Homo sapiens, UniProt P10635); conditions: in vivo; cited from earlier work
# T1 construct: metoprolol (a CYP2D6 substrate); host or cells: human subjects, in vivo
# [2] = test system: MCCL-357 and MCCL-278 cells; test: RPA and gamma-H2AX co-staining by flow cytometry; format: cell-based, mouse
# Protocol: FIG. 4A is a graph showing positively-stained cells labeled with a gamma-H2AX antibody; cells were analyzed by flow cytometry (Student's t-test, *p<0.05, n=3). […] The mean fluorescence intensity (MFI) was determined using flow cytometry (Student's t-test, *p<0.01, n=3). FIG. 4C is a series of representative photographs showing MEFs treated with 150 μM A771726 for 24 h and labeled with EdU and gamma-H2AX. Left: representative confocal microscopy images. Right: quantified EdU and gamma-H2AX colocalized foci (Student's t-test, *p<0.05, n=3). […] Left: representative confocal microscopy images. Right: quantification of the number of foci per cell (Student's t-test, p>0.05, n=6). FIG. 4E is a graph showing the percentage of cells treated with 150 μM A771726 for times indicated and labeled with antibodies to RPA and gamma-H2AX positively staining for RPA alone or both RPA and gamma-H2AX; cells were analyzed by flow cytometry (Student's t-test, *p<0.05, n=4). […] FIGS. 4G and 4H are graphs quantifying the number of chromosomal breaks and multiradial formations per haploid genome (Student's t-test, *p-values on figure, cells scored/replicate>100). […]
# FIG. 10D is a bar graph showing a quantitative depiction of the percent cell area with EdU-staining from images in FIG. 4D, used to normalize foci to cell size (Student's t-test, p>0.05, not significant, n=6). […] Cells were treated with A771726 for times indicated and co-stained with antibodies to RPA and gamma-H2AX; cells were analyzed by flow cytometry (n=4). […] FIG. 10H is a bar graph showing a quantitative depiction of the percent of abnormal […] in MCCL-278 and MCCL-357 breast cells treated with 50 or 100 μM A771726 or vehicle (Student's t-test, *p<0.01). […] Pulverized chromosomes could not be quantified due to the very high number of fragments.
# The FlowCellect™ Cell Cycle Checkpoint H2A.X DNA Damage Kit (Millipore FCCH12542) was used according to the instructions provided in the kit. […] (Propidium iodide was not used in this setting.) Fluorescence was measured on a Guava® flow cytometer.
# [3] = repeated doses of teriflunomide; cited from earlier work
# T1 sequence (P10635 whole entry): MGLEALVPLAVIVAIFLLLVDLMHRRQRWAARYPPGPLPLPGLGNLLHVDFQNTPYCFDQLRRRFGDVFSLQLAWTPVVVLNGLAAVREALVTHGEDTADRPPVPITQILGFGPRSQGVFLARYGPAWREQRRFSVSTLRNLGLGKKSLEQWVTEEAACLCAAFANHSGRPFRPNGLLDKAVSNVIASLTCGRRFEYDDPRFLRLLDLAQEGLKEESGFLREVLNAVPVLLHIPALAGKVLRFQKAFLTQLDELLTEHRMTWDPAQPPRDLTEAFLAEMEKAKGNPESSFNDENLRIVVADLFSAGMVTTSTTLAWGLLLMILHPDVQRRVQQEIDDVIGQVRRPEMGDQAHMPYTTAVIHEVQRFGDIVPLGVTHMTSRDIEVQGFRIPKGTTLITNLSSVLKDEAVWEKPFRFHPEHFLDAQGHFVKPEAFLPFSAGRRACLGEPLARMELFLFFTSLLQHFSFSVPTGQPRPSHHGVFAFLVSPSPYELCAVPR
smiles,measurement,setting,value
"C/C(O)=C(\C#N)C(=O)Nc1ccc(C(F)(F)F)cc1 [teriflunomide, (Z)-2-Cyano-3-hydroxy-but-2-enoic acid-(4trifluoromethylphenyl)-amide]",effect on pharmacokinetics of metoprolol (a CYP2D6 substrate),[1],does not affect the pharmacokinetics
same,RPA and gamma-H2AX double-positive cells,"[2]; 150 μM A771726, time course",shift toward both RPA and gamma-H2AX-positive cells in Pten^−/− MCCL-357 but not in Pten WT MCCL-278 cells
same,RPA signal,"[2]; 150 μM A771726, regardless of PTEN genotype",increase in RPA signal
same,gamma-H2AX in relation to RPA staining,[2]; MCCL-357 cells treated with A771726,appeared almost exclusively in RPA-positive MCCL-357 cells
same,increase in mean ethinylestradiol AUC 0-24,[3],1.54 fold
same,increase in mean ethinylestradiol Cmax,[3],1.58 fold
same,increase in mean levonorgestrel AUC 0-24,[3],1.41 fold
same,increase in mean levonorgestrel Cmax,[3],1.33 fold
